The record followed here is US8519003B2, “Phenoxyphenylamidines as fungicides” (priority 2007, dated 2013).

Series [1] in a line: logP determination (acidic / HCOOH and neutral). Particulars: for chromatographic logP: acidic, HCOOH (formic acid).
Series [2] relates to Erysiphe graminis f. sp. hordei. As to the kind of experiment: Erysiphe test (barley)/protective. It is filed as in vivo. Particulars: protective, active compound concentration 500 ppm, evaluation 7 days after inoculation. How it is done:
Erysiphe Test (Barley)/Protective [table] To produce a suitable preparation of active compound, 1 part by weight of N-ethyl-N-methyl-N′-[4-phenoxy-2,5-xylyl]formamidine (according to formula (1)) is mixed with the stated amounts of solvent and emulsifier, and the concentrate is diluted with water to the desired concentration. To test for protective activity, young cereal plants are sprayed with the active compound preparation at the stated application rate. 1 day after the treatment, the plants are inoculated with spores of Erysiphe graminis f. sp. hordei. The plants are then placed in a greenhouse at 70% relative atmospheric humidity and a temperature of 18° C. Evaluation is carried out 7 days after the inoculation. 0% means an efficacy which corresponds to that of the control, whereas an efficacy of 100% means that no infection is observed.

Series [3] concerns Uromyces appendiculatus. As to the kind of experiment: Uromyces test (bean)/protective. It is filed as in vivo. The conditions noted are these: protective, active compound concentration 10 ppm, evaluation 10 days after inoculation. How it is done:
(§1) Uromyces Test (Bean)/Protective [table] To produce a suitable preparation of active compound, 1 part by weight of N-ethyl-N-methyl-N′-[4-phenoxy-2,5-xylyl]formamidine (according to formula (1)) is mixed with the stated amounts of solvent and emulsifier, and the concentrate is diluted with water to the desired concentration. To test for protective activity, young plants are sprayed with the active compound preparation at the stated application rate. After the spray coating has dried on, the plants are inoculated with an aqueous spore suspension of the bean rust pathogen Uromyces appendiculatus and then remain in an incubation cabin at about 20° C. and 100% relative atmospheric humidity for 1 day. The plants are then placed in a greenhouse at about 21° C. and a relative atmospheric humidity of about 90%. Evaluation is carried out 10 days after the inoculation. 0% means an efficacy which corresponds to that of the control, whereas an efficacy of 100% means that no infection is observed.

Series [4] concerns Podosphaera leucotricha. Nature of the series: Podosphaera test (apple)/protective. The conditions noted are these: protective, active compound concentration 100 ppm, evaluation 10 days after inoculation. Type of series: in vivo. How it is done: as §1, with “Podosphaera” for “Uromyces”, “(Apple)/Protective” for “(Bean)/Protective”, “apple mildew” for “bean rust”, “Podosphaera leucotricha.” for “Uromyces appendiculatus and then remain in an incubation cabin at about 20° C. and 100% relative atmospheric humidity for 1 day.”, “23°” for “21°”, “70%.” for “90%.”

Series [5] concerns Sphaerotheca fuliginea. Nature of the series: Sphaerotheca test (cucumber)/protective. It is filed as in vivo. Particulars: protective, active compound concentration 100 ppm, evaluation 7 days after inoculation. How it is done:
Sphaerotheca Test (Cucumber)/Protective [table] To produce a suitable preparation of active compound, 1 part by weight of N-ethyl-N-methyl-N′-[4-phenoxy-2,5-xylyl]formamidine (according to formula (1)) is mixed with the stated amounts of solvent and emulsifier, and the concentrate is diluted with water to the desired concentration. To test for protective activity, young plants are sprayed with the active compound preparation at the stated application rate. After the spray coating has dried on, the plants are inoculated with an aqueous spore suspension of Sphaerotheca fuliginea. The plants are then placed in a greenhouse at about 23° C. and a relative atmospheric humidity of about 90%. Evaluation is carried out 7 days after the inoculation. 0% means an efficacy which corresponds to that of the control, whereas an efficacy of 100% means that no infection is observed.

Molecules are shown by their SMILES.

Usually chromatographic logP stands for a lipophilicity value derived from retention on a column. The low end stands for lower lipophilicity, the high end for higher lipophilicity. Turning to `Cc1cc(Oc2ccccc2)c(C)cc1N` [4-phenoxy-2,5-xylidine], the chromatographic logP in series [1] was determined as 1.92.

Broadly, the logP is a log measure of how a compound divides between an organic and an aqueous phase. Lower therefore signals a more hydrophilic compound. For the compound `CCN(C)C=Nc1cc(C)c(Oc2ccccc2)cc1C` [(1), N-ethyl-N-methyl-N′-[4-phenoxy-2,5-xylyl]formamidine], the efficacy in series [2], in series [3], in series [4] and in series [5] was no less than 70% each time. In series [1], the logP is 4.67. Moreover, in series [1], the chromatographic logP amounted to 1.87.
